Assay results: publication PMC11596062, “Substrate Specificity of ABCB Transporters Predicted by Docking Simulations Can Be Confirmed by Experimental Tests” (Molecules, 2024)

Key:
OfABCB2 = test system: T1, OfABCB2; assay: vanadate-sensitive ATPase assay, phosphate release, Sf9 membranes; format: biochemical, Oncopeltus fasciatus; conditions: substrate-stimulated ATPase; difference without / with 500 µM vanadate; 0-800 µM in 2% DMSO; 37 °C; read-out: Km Values [μM] ± SE / OfABCB2
T1 construct: full-length cds (3984 bp, 1327 aa), baculovirus pFBD in Sf9 cells, isolated cell membranes; no tag mentioned
From the text: vanadate-sensitive ATPase assay, phosphate release, Sf9 membranes on OfABCB2

OfABCB1 = conditions: read-out: Km Values [μM] ± SE / OfABCB1; substrate-stimulated ATPase; difference without / with 500 µM vanadate; 0-800 µM in 2% DMSO; 37 °C
From the text: vanadate-sensitive ATPase assay, phosphate release, Sf9 membranes on OfABCB1

Row | SMILES | Km (OfABCB2) [µM] | Km (OfABCB1) [µM]
1 | C[C@H]1O[C@@H](O[C@H]2[C@@H](O)C[C@H](O[C@H]3[C@@H](O)C[C@H](O[C@H]4CC[C@@]5(C)[C@H](CC[C@@H]6[C@@H]5C[C@@H](O)[C@]5(C)[C@@H](C7=CC(=O)OC7)CC[C@]65O)C4)O[C@@H]3C)O[C@@H]2C)C[C@H](O)[C@@H]1O [digoxin] | 9.33 ± 2.43 | 33.7 ± 11.4
2 | C[C@@H]1O[C@@H](O[C@H]2C[C@@H](O)[C@]3(CO)[C@H]4[C@H](O)C[C@]5(C)[C@@H](C6=CC(=O)OC6)CC[C@]5(O)[C@@H]4CC[C@]3(O)C2)[C@H](O)[C@H](O)[C@H]1O [ouabain] | 7.05 ± 2.61 | –
